Where two headings read alike, the source gives them in different places.
How the values were obtained:
Test in all cases: Colony formation (CFU) assay
Type in all cases: cell-based
GOTO = settings: nervous system
Protocol: (§1) In vitro experiments were conducted using the colony formation unit (CFU) assay on various cell lines. The CFU assay involved first establishing what cell plating density enabled the development of clearly interspersed colonies on a six-well plate when left to grow for around 14 days. […] Media was changed on day 8 containing appropriate concentrations of DMSO, USP1 inhibitor, Niraparib, or Olaparib. At or around day 14 when clearly interspersed colonies were visible in the DMSO treated wells, the cells were fixed and stained using 0.1% crystal violet in 10% ethanol for 20 minutes at room temperature. The plates were imaged then the amount of crystal violet stain in each well was quantified by extracting the crystal violet into 10% acetic acid and the absorbance measured at 565 nm.
(§2) IC50 values were calculated by fitting a two-parameter hill equation to the dose-response measurements. Non-linear-least-squares was used to find parameter values that minimize the squared error of the model fit to measured dose response. Non-linear-least-squares estimation was performed using the minpack.lm R package, version 1.2-1. Bliss synergy scores were calculated using the synergyfinder R package version 1.6.1.

HS821T = settings: bone
Protocol: as §1, §2

NOS1 = settings: NOS1, bone
Protocol: as §1, §2

U251MG = settings: Homo sapiens, U-251, nervous system
Protocol: as §1, §2

COV434 = settings: COV434, ovary
Protocol: as §1, §2

T226 = settings: T226, breast
Protocol: as §1, §2

NCIH1693 = settings: Homo sapiens, NCI-H1693; NCIH1693, lung
Protocol: as §1, §2

CAPAN1 = settings: Homo sapiens, CAPAN-1; CAPAN1, pancreas
Protocol: as §1, §2

KS1 = settings: KS1, nervous system
Protocol: as §1, §2

OVA2BUR = settings: ovary
Protocol: as §1, §2

PK8 = settings: PK8, pancreas
Protocol: as §1, §2

NCIH1915 = settings: NCI-H1915; NCIH1915, lung
Protocol: as §1, §2

DMS53 = settings: Homo sapiens, DMS-53; DMS53, lung
Protocol: as §1, §2

PK45H = settings: pancreas
Protocol: as §1, §2

8305C = settings: Homo sapiens, thyroid
Protocol: as §1, §2

UMUC3 = settings: Homo sapiens; UMUC3, bladder
Protocol: as §1, §2

SUIT2 = settings: SUIT-2; SUIT2, pancreas
Protocol: as §1, §2

HMC18 = settings: HMC18, breast
Protocol: as §1, §2

A2780 = settings: Homo sapiens; A2780, ovary
Protocol: as §1, §2

HCC1569 = settings: Homo sapiens; HCC1569, breast
Protocol: as §1, §2

BICR18 = settings: BICR18, head and neck
Protocol: as §1, §2

59M = settings: ovary
Protocol: as §1, §2

RT112 = settings: Homo sapiens, RT-112; RT112, bladder
Protocol: as §1, §2

MG63 = settings: Homo sapiens, MG-63; MG63, bone
Protocol: as §1, §2

SNU81 = settings: SNU81, colon
Protocol: as §1, §2

NCIH1838 = settings: Homo sapiens, NCI-H1838; NCIH1838, lung
Protocol: as §1, §2

HBCx3 = settings: HBCx3, breast
Protocol: as §1, §2

RCM1 = settings: Homo sapiens, RCM-1; RCM1, colon
Protocol: as §1, §2

SNUC5 = settings: SNUC5, colon
Protocol: as §1, §2

NCIH1299 = settings: Homo sapiens, NCI-H1299; NCIH1299, lung
Protocol: as §1, §2

BICR56 = settings: BICR56, head and neck
Protocol: as §1, §2

AN3CA = settings: Homo sapiens, AN3-CA, uterus
Protocol: as §1, §2

KP3 = system: KP3
Protocol: as §1, §2

HBCx17 = settings: HBCx17, breast
Protocol: as §1, §2

HBCx13B = settings: breast
Protocol: as §1, §2

SNU8 = settings: SNU8, ovary
Protocol: as §1, §2

ECGI10 = settings: ECGI10, esophagus
Protocol: as §1, §2

KALS1 = settings: Homo sapiens, KALS-1; KALS1, nervous system
Protocol: as §1, §2

SKOV3 = settings: Homo sapiens, SK-OV-3; SKOV3, ovary
Protocol: as §1, §2

| Structure (SMILES) | IC50 (GOTO) [nM] | IC50 (HS821T) [nM] | IC50 (NOS1) [nM] | IC50 (U251MG) [nM] | IC50 (COV434) [nM] | IC50 (T226) [nM] | IC50 (NCIH1693) [nM] | IC50 (CAPAN1) [nM] | IC50 (KS1) [nM] | IC50 (OVA2BUR) [nM] | IC50 (PK8) [nM] | IC50 (NCIH1915) [nM] | IC50 (DMS53) [nM] | IC50 (PK45H) [nM] | IC50 (8305C) [nM] | IC50 (UMUC3) [nM] | IC50 (SUIT2) [nM] | IC50 (HMC18) [nM] | IC50 (A2780) [nM] | IC50 (HCC1569) [nM] | further results |
| --- | --- | --- | --- | --- | --- | --- | --- | --- | --- | --- | --- | --- | --- | --- | --- | --- | --- | --- | --- | --- | --- |
| NC(=O)c1cccc2cn(-c3ccc([C@@H]4CCCNC4)cc3)nc12 [Niraparib, niraparib, reference compound] | 22.4 | > 300 | > 300 | > 300 | 106 | > 300 | > 300 | 185 | > 300 | > 300 | > 300 | 66.2 | 168 | > 300 | > 300 | > 300 | > 300 | > 300 | > 300 | 97.3 | IC50 (BICR18): > 300 nM; IC50 (59M): 63.4 nM; IC50 (RT112): > 300 nM; IC50 (MG63): > 300 nM; IC50 (SNU81): 18.6 nM; IC50 (NCIH1838): > 300 nM; IC50 (HBCx3): 20.8 nM; IC50 (RCM1): > 300 nM; IC50 (SNUC5): 92.4 nM; IC50 (NCIH1299): > 300 nM; IC50 (BICR56): > 300 nM; IC50 (AN3CA): 101 nM; IC50 (KP3; KP3, pancreas, read-out: IC50): > 300 nM; IC50 (HBCx17): 13.8 nM; IC50 (HBCx13B): > 300 nM; IC50 (SNU8): > 300 nM; IC50 (ECGI10): > 300 nM; IC50 (KALS1): > 300 nM; IC50 (SKOV3): > 300 nM |
| COc1ncnc(C2CC2)c1-c1ncc2cnn(Cc3ccc(-c4nc(C(F)(F)F)cn4C)cc3)c2n1 [Formula II, 6-(4-cyclopropyl-6-methoxypyrimidin-5-yl)-1-(4-(1-methyl-4-(trifluoromethyl)-1H-imidazol-2-yl)benzyl)-1H-pyrazolo[3,4-d]pyrimidine] | > 300 | > 300 | > 300 | > 300 | > 300 | > 300 | 12.7 | > 300 | > 300 | > 300 | > 300 | 52.2 | > 300 | 294 | > 300 | > 300 | > 300 | > 300 | > 300 | > 300 | IC50 (BICR18): > 300 nM; IC50 (59M): 34.9 nM; IC50 (RT112): > 300 nM; IC50 (MG63): > 300 nM; IC50 (SNU81): 10.2 nM; IC50 (NCIH1838): > 300 nM; IC50 (HBCx3): > 300 nM; IC50 (RCM1): > 300 nM; IC50 (SNUC5): > 300 nM; IC50 (NCIH1299): > 300 nM; IC50 (BICR56): > 300 nM; IC50 (AN3CA): > 300 nM; IC50 (KP3): > 300 nM; IC50 (HBCx17): > 300 nM; IC50 (HBCx13B): > 300 nM; IC50 (SNU8): > 300 nM; IC50 (ECGI10): > 300 nM; IC50 (KALS1): > 300 nM; IC50 (SKOV3): > 300 nM |

From patent publication US20230277533A1, “THERAPEUTIC COMBINATIONS COMPRISING UBIQUITIN-SPECIFIC-PROCESSING PROTEASE 1 (USP1) INHIBITORS AND POLY (ADP-RIBOSE) POLYMERASE (PARP) INHIBITORS” (KSQ Therapeutics, Inc., priority 2020, published 2023)
